Source: US9695152B2, “3,4-dihydro-2H-isoquinoline-1-one and 2,3-dihydro-isoindol-1-one compounds” (Hoffmann-La Roche Inc., priority 2013, dated 2017)

Columns and labels:
[1] = rat, cited from earlier work; for plasma aldosterone: 4 weeks (FAD286), 4 and 8 weeks (spironolactone) of treatment
[2] = target: T1, CYP11B2 (Homo sapiens (Human), UniProt P19099); assay: G-402 cellular enzyme assay, human CYP11B2 (aldosterone release, HTRF); assay type: cell-based; settings: G-402 cells expressing human CYP11B2, 1 μM Deoxycorticosterone
T1 sequence (P19099 25-503): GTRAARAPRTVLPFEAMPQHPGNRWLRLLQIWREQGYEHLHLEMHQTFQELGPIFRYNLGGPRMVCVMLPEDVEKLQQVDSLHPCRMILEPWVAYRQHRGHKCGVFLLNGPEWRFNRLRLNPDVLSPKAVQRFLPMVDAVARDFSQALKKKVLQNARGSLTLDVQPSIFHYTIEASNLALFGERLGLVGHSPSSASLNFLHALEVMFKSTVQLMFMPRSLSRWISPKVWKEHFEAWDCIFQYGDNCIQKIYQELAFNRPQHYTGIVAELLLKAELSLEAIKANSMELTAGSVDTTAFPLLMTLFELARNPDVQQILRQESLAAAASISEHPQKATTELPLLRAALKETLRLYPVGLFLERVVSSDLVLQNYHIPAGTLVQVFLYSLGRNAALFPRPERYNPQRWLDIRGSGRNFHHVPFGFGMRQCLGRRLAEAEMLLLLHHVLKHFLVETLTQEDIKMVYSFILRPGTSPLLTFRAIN
Text: (§1) Herein we identified the use of the G-402 cell line as a host cell to ectopically express (transiently or stably) enzymes of the CYP11 family. Specifically we developed stable G-402 cells expressing ectopically human CYP11B1, human CYP11B2, human CYP11A1, cynmolgus CYP11B1 or cynomolgus CYP11B2 enzyme activity. Importantly the identified cell line G-402 expresses co-factors (adrenodoxin and adrenodoxin reductase) important for the activity of the CYP11 family and no relevant enzyme activity of the CYP11 family (in comparison to H295R cells) was detected in these cells. Therefore the G-402 cell line is uniquely suited as a host cell for the ectopic expression of enzymes from the CYP11 family.
(§2) G-402 cells can be obtained from ATCC (CRL-1440) and were originally derived from a renal leiomyoblastoma.
(§3) The expression plasmids contains the ORF for either human/cyno CYP11B1 or CYP11B2 under the control of a suitable promoter (CMV-promoter) and a suitable resistance marker (neomycin). Using standard techniques the expression plasmid is transfected into G-402 cells and these cells are then selected for expressing the given resistance markers. Individual cell-clones are then selected and assessed for displaying the desired enzymatic activity using 11-Deoxycorticosterone (Cyp11B2) or 11-Deoxycortisol (Cyp11B1) as a substrate.
(§4) G-402 cells expressing CYP11 constructs were established as described above and maintained in McCoy's 5a Medium Modified, ATCC Catalog No. 30-2007 containing 10% FCS and 400 μg/ml G418 (Geneticin) at 37° C. under an atmosphere of 5% CO2/95% air. Cellular enzyme assays were performed in DMEM/F12 medium containing 2.5% charcoal treated FCS and appropriate concentration of substrate (0.3-10 uM 11-Deoxycorticosterone, 11-Deoxycortisol or Corticosterone). For assaying enzymatic activity, cells were plated onto 96 well plates and incubated for 16 h. An aliquot of the supernatant is then transferred and analyzed for the concentration of the expected product (Aldosterone for CYP11B2; Cortisol for CYP11B1). The concentrations of these steroids can be determined using HTRF assays from CisBio analyzing either Aldosterone or Cortisol.
(§5) Inhibition of the release of produced steroids can be used as a measure of the respective enzyme inhibition by test compounds added during the cellular enzyme assay. The dose dependent inhibition of enzymatic activity by a compound is calculated by means of plotting added inhibitor concentrations (x-axes) vs. measured steroid/product level (y-axes). The inhibition is then calculated by fitting the following 4-parameter sigmoidal function (Morgan-Mercer-Flodin (MMF) model) to the raw data points using the least squares method:
(§6) [formula] wherein, A is the maximum y value, B is the EC50 factor determined using XLFit, C is the minimum y value and D is the slope value.
(§7) EC50 values for compounds claimed herein were tested with the G402-based assay system described. Cyp11B2 enzyme activity was tested in presence of 1 μM Deoxycorticosterone and variable amounts of inhibitors; Cyp11B1 enzyme activity was tested in presence of 1 μM Deoxycortisol and variable amounts of inhibitors.

[3] = target: human CYP11B1 (Homo sapiens (Human), UniProt P15538); assay: G-402 cellular enzyme assay, human CYP11B1 (cortisol release, HTRF); assay type: cell-based; settings: G-402 cells expressing human CYP11B1, 1 μM Deoxycortisol
Chain of human CYP11B1 (P15538 25-503): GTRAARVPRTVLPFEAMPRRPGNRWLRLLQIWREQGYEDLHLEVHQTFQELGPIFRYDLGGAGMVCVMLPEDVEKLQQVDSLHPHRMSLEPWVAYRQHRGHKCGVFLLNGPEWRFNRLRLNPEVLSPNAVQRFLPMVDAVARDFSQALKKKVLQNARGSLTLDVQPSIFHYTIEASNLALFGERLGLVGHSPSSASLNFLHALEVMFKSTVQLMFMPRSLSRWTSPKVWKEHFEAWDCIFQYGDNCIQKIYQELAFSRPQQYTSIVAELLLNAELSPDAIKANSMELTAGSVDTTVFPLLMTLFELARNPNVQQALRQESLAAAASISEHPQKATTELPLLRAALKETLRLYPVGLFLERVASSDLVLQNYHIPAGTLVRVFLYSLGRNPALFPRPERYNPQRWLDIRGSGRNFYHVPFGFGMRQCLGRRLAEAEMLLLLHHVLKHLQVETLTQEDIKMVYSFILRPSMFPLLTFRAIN
Text: as §1, §2, §3, §4, §5, §6, §7

[4] = target: T1, CYP11B2; settings: patients with primary aldosteronism, cited from earlier work
[5] = rats with experimental heart failure; cited from earlier work

SMILES	EC50 [2]	EC50 [3]	also measured
CC(=O)S[C@@H]1CC2=CC(=O)CC[C@]2(C)[C@H]2CC[C@@]3(C)[C@@H](CC[C@@]34CCC(=O)O4)[C@H]12 [spironolactone]			plasma aldosterone [1]: increased; angiotensin II and salt-stimulated PAI-1 mRNA expression in the aorta and the heart [1]: enhanced
Cc1ccncc1C(=O)N1CC(Nc2cncc(N3C(=O)c4ccc(Cl)cc4C3(C)C)c2)C1 [Example 10, 5-Chloro-3,3-dimethyl-2-[5-[[1-(4-methylpyridin-3-carbonyl)azetidin-3-yl]amino]pyridin-3-yl]isoindol-1-one]	11 nM	1740 nM	
Cn1ccnc1C(=O)N1CC(Nc2cncc(N3C(=O)c4ccc(Cl)cc4C3(C)C)c2)C1 [Example 2, 5-Chloro-3,3-dimethyl-2-[5-[[1-(1-methylimidazole-2-carbonyl)azetidin-3-yl]amino]-3-pyridyl]isoindolin-1-one]	4 nM	450 nM	
N#Cc1ccc([C@H]2CCc3cncn32)c(F)c1 [LCI699]			circulating aldosterone levels ([4]; oral): significantly lower; blood pressure [4]: mildly decreased; hypokalemia [4]: corrected
CC1c2cc(Cl)ccc2C(=O)N1c1cncc(NC2CN(S(=O)(=O)C3CC3)C2)c1 (stereo not drawn) [Example 14, 5-Chloro-2-[5-[(1-cyclopropylsulfonylazetidin-3-yl)amino]pyridin-3-yl]-3-methyl-3H-isoindol-1-one]	131 nM	2890 nM	
C[C@@H]1c2cc(Cl)ccc2C(=O)N1c1cncc(NC2CN(S(=O)(=O)C3CC3)C2)c1 (single isomer, unassigned) [Example 30, (3S or 3R)-5-Chloro-2-[5-[(1-cyclopropylsulfonylazetidin-3-yl)amino]-3-pyridyl]-3-methyl-isoindolin-1-one]	18 nM	652 nM	
Cc1ccncc1C(=O)N1CC(Nc2cncc(N3C(=O)c4ccc(C#N)cc4C3(C)C)c2)C1 [Example 32, 3,3-Dimethyl-2-[5-[[1-(4-methylpyridine-3-carbonyl)azetidin-3-yl]amino]-3-pyridyl]-1-oxo-isoindoline-5-carbonitrile]	27 nM	6140 nM	
CN(c1cncc(N2C(=O)c3ccc(Cl)cc3C2(C)C)c1)C1CCN(S(=O)(=O)C2CC2)C1 (single isomer, unassigned; (+)) [Example 4, (+)-5-Chloro-2-[5-[[(3R or 3S)-1-cyclopropylsulfonylpyrrolidin-3-yl]-methylamino]pyridin-3-yl]-3,3-dimethylisoindol-1-one]	2 nM	56 nM	
CC1(C)c2cc(C#N)ccc2C(=O)N1c1cncc(NC2CN(S(=O)(=O)C3CC3)C2)c1 [Example 31, 2-[5-[(1-Cyclopropylsulfonylazetidin-3-yl)amino]-3-pyridyl]-3,3-dimethyl-1-oxo-isoindoline-5-carbonitrile]	12 nM	7000 nM	
CC1(C)c2cc(Cl)ccc2C(=O)N1c1cncc(NC2CN(C(=O)c3ncccc3Cl)C2)c1 [Example 9, 5-Chloro-2-[5-[[1-(3-chloropyridine-2-carbonyl)azetidin-3-yl]amino]pyridin-3-yl]-3,3-dimethylisoindol-1-one]	7 nM	297 nM	
Cn1cc(C(=O)N2CC(Nc3cncc(N4CCc5cc(Cl)ccc5C4=O)c3)C2)cn1 [Example 21, 6-Chloro-2-[5-[[1-(1-methylpyrazole-4-carbonyl)azetidin-3-yl]amino]-3-pyridyl]-3,4-dihydroisoquinolin-1-one]	7 nM	16900 nM	
Cc1ccncc1C(=O)N1CC(Nc2cncc(N3C(=O)c4ccc(Cl)cc4[C@H]3C)c2)C1 (single isomer, unassigned) [Example 25, (3R or 3S)-5-Chloro-3-methyl-2-[5-[[1-(4-methylpyridine-3-carbonyl)azetidin-3-yl]amino]-3-pyridyl]isoindolin-1-one]	7 nM	4360 nM	
O=C(c1ncccc1Cl)N1CC(Nc2cncc(N3CCc4cc(Cl)ccc4C3=O)c2)C1 [Example 17, 6-Chloro-2-[5-[[1-(3-chloropyridine-2-carbonyl)azetidin-3-yl]amino]pyridin-3-yl]-3,4-dihydroisoquinolin-1-one]	145 nM	1910 nM	
N#Cc1ccc([C@H]2CCCc3cncn32)cc1 [FAD286]			plasma aldosterone [1]: reduced; angiotensin II and salt-stimulated PAI-1 mRNA expression in the aorta and the heart [1]: not; blood pressure and cardiovascular function and structure [5]: improved
C[C@H]1c2cc(Cl)ccc2C(=O)N1c1cncc(NC2CN(C(=O)c3ncccc3Cl)C2)c1 (single isomer, unassigned) [Example 28, (3S or 3R)-5-Chloro-2-[5-[[1-(3-chloropyridine-2-carbonyl)azetidin-3-yl]amino]-3-pyridyl]-3-methyl-isoindolin-1-one]	27 nM	533 nM	
Cc1ccncc1C(=O)N1CC(Nc2cncc(N3C(=O)c4ccc(Cl)cc4C3C)c2)C1 (stereo not drawn) [Example 13, 5-Chloro-3-methyl-2-[5-[[1-(4-methylpyridine-3-carbonyl)azetidin-3-yl]amino]pyridin-3-yl]-3H-isoindol-1-one]	7 nM	4900 nM	
CC1(C)c2cc(Cl)ccc2C(=O)N1c1cncc(NC2CCCN(S(=O)(=O)C3CC3)C2)c1 (single isomer, unassigned; (-)) [Example 8, (−)-5-Chloro-2-[5-[[3S or 3R)-1-cyclopropylsulfonylpiperidin-3-yl]amino]pyridin-3-yl]-3,3-dimethylisoindol-1-one]	365 nM	19500 nM	
CC1(C)c2cc(C#N)ccc2C(=O)N1c1cncc(NC2CCN(C(=O)c3ncccc3Cl)CC2)c1 [Example 36, 2-[5-[[1-(3-Chloropyridine-2-carbonyl)-4-piperidyl]amino]-3-pyridyl]-3,3-dimethyl-1-oxo-isoindoline-5-carbonitrile]	22 nM	1400 nM	
Cc1cncc(C(=O)N2CC(Nc3cncc(N4C(=O)c5ccc(Cl)cc5C4(C)C)c3)C2)c1 [Example 11, 5-Chloro-3,3-dimethyl-2-[5-[[1-(5-methylpyridine-3-carbonyl)azetidin-3-yl]amino]pyridin-3-yl]isoindol-1-one]	3 nM	1950 nM	
CC1(C)c2cc(C#N)ccc2C(=O)N1c1cncc(NC2CN(C(=O)c3ncccc3Cl)C2)c1 [Example 38, 2-[5-[[1-(3-Chloropyridine-2-carbonyl)azetidin-3-yl]amino]-3-pyridyl]-3,3-dimethyl-1-oxo-isoindoline-5-carbonitrile]	31 nM	1200 nM	
